Columns and labels:
[1] = test system: mouse model of opioid induced hyperalgesia; conditions: in vivo, sc
[2] = test system: opioid induced hyperalgesia; experiment: Human subject with morphine-induced hyperalgesia switched to compound (Example 3); assay type: in vivo; conditions: morphine stopped, compound administered
[3] = test system: nociceptive sensitization; experiment: Subject with opioid-induced increased nociceptive sensitization switched to compound (Example 4); assay type: in vivo; conditions: subject switched from opioid to pharmaceutical composition of compound
Text: A subject is identified as having increased nociceptive sensitization due to being administered an opioid for pain relief. The subject is switched from the opioid to a pharmaceutical composition comprising Compound 140 or Compound 265. The subject's nociceptive sensitization is decreased while maintaining the pain relief.

Row | SMILES | % non-responses to 10 applications of a 0.4 g von Frey filament (hyperalgesia induction) [1] | opioid induced hyperalgesia in human subject after stopping morphine [2] | nociceptive sensitization after switch from opioid [3]
1 | COc1ccc2c3c1O[C@H]1C(=O)CC[C@@]4(O)[C@@H](C2)N(C)CC[C@]314 [Oxycodone] | decreased the % non-responses | – | –
2 | COc1ccsc1CNCC[C@@]1(c2ccccn2)CCOC2(CCCC2)C1 [Compound 140] | – | treated and reduced | decreased

From patent US10588889B2 (priority 2015, dated 2020)
